According to US11801235B2, “Methods and compositions for delivery of biotin to mitochondria” (priority 2020, dated 2023):
Square brackets hold non-standard residues; d marks the D form. Peptide text beside a SMILES is read from it. * marks the point of attachment. Biotin = O=C1N[C@H]2[C@H](CS[C@H]2CCCCC(=O)*)N1

Tests used:
[1] = system: ARPE-19 human retinal pigment epithelial cells; assay: Mitochondrial localization: co-localization with cytochrome c oxidase subunit 4 (COX4); assay type: cell-based; settings: ARPE-19 cells, 1 uM, 2 hours, serum-free DMEM/F12
Experimental: Cells were fixed with 4% PFA at RT for 10 min and then permeabilized with 0.1% Triton X-100 at RT for 10 min. Cells were blocked with 2% BSA (bovine serum albumin) at RT for 30 min, and then incubated with primary antibody for cytochrome c oxidase subunit 4 (COX4), a major protein complex expressed on the inner mitochondrial membrane. The rabbit polyclonal COX4 antibody (Invitrogen PAS-29992, Waltham, MA) was used at 1:500 dilution in 2% BSA at 4° C. overnight.

[2] = system: Human retinal pigment epithelial cells (ARPE-19); assay: Mitochondrial potential (TMRM/MitoView Green) after serum starvation; assay type: cell-based; settings: ARPE-19 cells, 3 days of serum starvation, then 1 uM for 2 hours
Experimental: ARPE-19 cells were seeded in 35 mm glass plates at an initial density of 5×10^4 cells. […] Cells were then incubated in serum-free DMEM/F12 alone (control group) or DMEM/F12 containing 1 uM of SPN12 or SPN15 for 2 hours.
To determine mitochondrial potential, live cells were incubated with 5 nM tetramethylrhodamine methyl ester (TMRM, #70017, Biotium, Fremont, CA) in DMEM without phenol red. TMRM is a potential-dependent fluorescent dye (Ex/Em=548/573). TMRM accumulates in negatively charged polarized mitochondria and can be detected as red fluorescence. Total mitochondria were imaged with a mitochondrial potential-independent fluorescent dye (100 nM MitoView Green; Ex/Em=490/523; #70054, Biotium, Fremont CA). Hoechst 33342 (10 ug/ml, Novus Biologicals, Centennial, CO) was added to stain nuclei. Live cells were covered with phosphate buffer and imaged using the Nikon Eclipse Ti fluorescent microscopy using the 60×water objective.

mouse retina = settings: 30 mg/kg ip
Experimental: SPN15 (30 mg/kg) was administered ip to a 13-month-old male mouse (C57BL/6J strain). At 2-hours after administration, the mouse was anesthetized with an overdose of ketamine/xylazine, and the eyes enucleated. After the cornea and lens were removed, the eyecup was fixed for 1.25 hours in 4% paraformaldehyde in 0.1M Tris buffer. The eyecup was then rinsed 3 times for 10 minutes each in Tris buffer and then cryoprotected in 10%, 20%, and 30% sucrose before sectioning at 30 um with a Leica 3050 cryostat. Sections were stored at −20° C. until used.
To label biotin on SPN15, sections were incubated with Streptavidin conjugated AlexaFluor 594 (1:500) from Jackson ImmunoResearch, West Grove, PA). ToPro 3 (nuclear stain, 1:1000, Molecular Probes) was used to stain cell nuclei. Mitochondria localization was determined using an antibody to Cox IV (cytochrome c oxidase subunit 4; PA529992, 1:300, Invitrogen) and Mitotracker Red (1:1500 in Tris, Invitrogen). All incubations were carried out in microwave (150W) except for Cox IV and Mitotracker labeling, which was done with primary antibody overnight at 4° C. followed by secondary antibody (AF488 conjugated donkey anti-rabbit, Jackson Immunoresearch). Sections were imaged using the Olympus Fluoview 300 with helium, argon and neon lasers using 40× oil immersion lens at a resolution of 1024×1024.

ARPE-19 cells [3] = assay: In vitro scratch assay (scratch area); assay type: cell-based, human
From the text: (§1) Certain exemplary peptide-conjugated biotin molecules can accelerate wound healing in cell cultures. The in vitro scratch assay is an easy and well-developed method to measure cell proliferation and migration over a “wound area” in vitro. This assay involves creating a “scratch” in a cell monolayer with a pipette tip and then examining the rate at which cells proliferate and migrate to close the scratch.
(§2) The scratch area was examined immediately (day 0) using a Nikon Eclipse Ti2 fluorescence microscope. Six different field were captured for each sample using 4×objective. The scratch area (cell-free zone) was calculated using ImageJ software, an open-source Java image processing program inspired by NIH Image (National Institute of Health). The scratch area was re-examined after 24 hours (day 1), and the area was normalized to the area determined on day 0 for the same sample. All results were calculated as change from no-treatment control and averaged for the six fields.

ARPE-19 cells [4] = assay: Cell number and viability after 30 days of serum deprivation; assay type: cell-based, human; settings: 10 nM
Experimental: Cell viability was measured using the Alamar Blue Cell Proliferation Assay (Bio-Rad), according to manufacturer's protocol. Alamar Blue uses resazurin to measure reducing power of living cells. The weakly fluorescent resazurin is reduced to the highly fluorescent resorufin when reduced by cellular metabolism. Briefly, alamar blue reagent (10 ul) was added to the culture medium and incubated for 1 h at 37° C. Fluorescence from resorufin (Ex/Em 530/590 nm) was detected using a microplate reader (SpectraMax iD3, Molecular Devices).
In the second model, ARPE-19 cells were grown in serum-free DMEM in the absence or presence of peptide-conjugated biotin molecules for 30 days. Serum-free media was supplemented with 10 nM of SPN12, SPN15 or SPN16 compounds (all at 10 nM) was replaced every 3 days. Culture medium was replaced every 3 days.

[5] = system: ARPE-19 human retinal pigment epithelial cells; assay: Biotin uptake by streptavidin-Alexa Fluor 594 fluorescence in ARPE-19 cells; settings: 1 uM, 1-hour incubation, serum-free
Experimental: Cellular uptake and localization of peptide-conjugated biotin molecules were determined in HK-2 human renal epithelial cells and ARPE-19 human retinal pigment epithelial cells (ATCC, Manassas, VA). HK-2 cells were cultured in Dulbecco's Modified Eagle's Medium (DMEM) containing 1 g/L glucose and 10% fetal bovine serum (FBS), 100 units/ml penicillin and 100 ug/ml streptomycin. ARPE-19 cells were cultured in DMEM/F12 medium containing 1 g/L glucose and 10% fetal bovine serum (FBS), 100 units/ml penicillin and 100 ug/ml streptomycin. Cells were incubated in humidified incubator with 5% CO2 at 37° C. HK-2 cells and ARPE-19 cells were seeded in 35 mm dish at an initial density of 5×10^4 cells. FBS was removed from the culture medium for 3 days to deplete endogenous biotin in the cells. […]
Biotin uptake was determined using Streptavidin binding. […] By using Alexa Fluor 594-conjugated streptavidin, it is possible to visualize biotin uptake using fluorescence microscopy. […] Live cell image buffer was added and Alexa-594 fluorescence (Ex/Em=591/614 nm) and Hoechst fluorescence ([…]) was observed using the Nikon Eclipse Ti2 fluorescence microscope (100×oil objective). Ten random fields from each sample were quantified by NIS-Elements Imaging Software (Nikon) for streptavidin fluorescence and normalized to Hoechst fluorescence to account for number of cells per field.

HK-2 cells = assay: In vitro scratch assay (scratch area); assay type: cell-based, human; settings: 10 nM, serum-free, 24 hours
Experimental: as §1
3×10^5 cells were plated per well in 6-well plates in DMEM at 37° C. in a humidified incubator with 5% CO2 for one day prior to the experiment. To mimic the microenvironment of wounds in vitro, serum-free medium was used in the scratch assay. On the day of the scratch assay, the medium was replaced with serum-free DMEM, and a line scraped across the cell monolayer using a p1000 pipette tip. Cells were washed to remove cell debris and replaced with DMEM alone (control), or DMEM containing 10 nM biotin or peptide-conjugated biotin molecules.
as §2

[6] = mouse, 2 hours after administration

## N=C(N)NCCC[C@@H](N)C(=O)N[C@@H](Cc1ccc(O)cc1)C(=O)N[C@H](CCCNC(=N)N)C(=O)N[C@@H](Cc1ccccc1)C(=O)N[C@@H](CCCCNC(=O)CCCC[C@@H]1SC[C@@H]2NC(=O)N[C@@H]21)C(N)=O [SPN15, D-Arg-L-Tyr-D-Arg-L-Phe-L-Lys(biotinyl)-NH2] (H-[dR]Y[dR]FK(Biotin)-NH2; N-terminus assumed)
[1]
  co-localization of biotin staining with COX4 staining (inner mitochondrial membrane), FIG. 6: co-localization
[2]
  mitochondrial potential (TMRM) and filamentous mitochondrial network, FIG. 14: restore mitochondrial potential in all cells
Mouse retina; living mouse, 2 hours
  absorption after ip administration: rapidly absorbed
Mouse retina; [6]
  co-localization of streptavidin staining with COX4 staining in retina, FIG. 26: co-localizes with COX4 staining in the RGC, IPL, INL, and the photoreceptor IS
  distribution of staining within retinal layers, FIG. 26: concentrated in the inner and outer plexiform layers (IPL and OPL)
  staining in retinal pigment epithelium (RPE) cells, FIG. 27: can clearly be seen in the RPE cells
  uptake into retina (Streptavidin Alexa Fluor 594 staining), FIG. 26: clearly taken up in the different layers of the retina
ARPE-19 cells [3]
  wound healing (scratch closure), FIG. 18: accelerated wound healing
ARPE-19 cells [4]; 30 days of serum deprivation
  cell viability after serum deprivation compared to control, FIG. 9: doubled
ARPE-19 cells [4]; 30 days serum-free
  cell number after prolonged serum deprivation, microscopic images FIG. 8: increased cell number
[5]
  intracellular streptavidin staining (cellular uptake of biotin), microscopic images FIG. 4: intense red staining with a perinuclear distribution
HK-2 cells
  closure of the scratch area compared to control, FIG. 16 and FIG. 17: significantly accelerated the closure of the scratch area
  effectiveness in reducing scratch area compared to free biotin, FIG. 16 and FIG. 17: three times more effective
